Test [1] addresses T1, human amylin receptor (Homo sapiens, UniProt O60896+P30988).
T1 construct: expressed in transfected cells
T1 sequence (P30988 25-474): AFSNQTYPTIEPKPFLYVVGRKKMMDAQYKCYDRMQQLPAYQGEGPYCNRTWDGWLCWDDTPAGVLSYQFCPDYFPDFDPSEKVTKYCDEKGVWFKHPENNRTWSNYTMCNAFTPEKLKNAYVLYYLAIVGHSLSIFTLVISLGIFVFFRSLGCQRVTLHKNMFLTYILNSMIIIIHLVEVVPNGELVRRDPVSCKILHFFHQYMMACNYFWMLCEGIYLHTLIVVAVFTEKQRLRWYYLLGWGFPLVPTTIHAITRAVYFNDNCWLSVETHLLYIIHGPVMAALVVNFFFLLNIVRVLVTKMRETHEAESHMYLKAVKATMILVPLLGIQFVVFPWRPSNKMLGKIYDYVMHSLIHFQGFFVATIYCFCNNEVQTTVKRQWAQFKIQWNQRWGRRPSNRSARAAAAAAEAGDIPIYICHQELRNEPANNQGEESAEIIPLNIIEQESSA
T1 sequence (O60896 24-148 partner): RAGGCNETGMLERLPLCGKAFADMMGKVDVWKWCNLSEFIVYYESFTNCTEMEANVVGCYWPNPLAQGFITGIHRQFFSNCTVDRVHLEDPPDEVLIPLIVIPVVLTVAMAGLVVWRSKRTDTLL
Kind of test: Assay (V) binding to the human amylin receptor (SPA, 125I-rat amylin). As for the experimental part: The binding assay was performed using scintillation proximity assay (SPA) beads (RPNQ0001) from PerkinElmer and cell membranes from the Amylin 3(a)/CRE-luc cells (as described in Assay (II)) were used. Membranes were prepared in the following way; the cells were rinsed with PBS and incubated with Versene for approximately 5 min before harvesting. The cells were flushed with PBS and the cell-suspension was centrifuged for 5 min at 1000 rpm. […] The resulting pellet was resuspended in buffer 2 and protein concentration was measured (BCA protein Assay, Pierce). The homogenate was kept cold during the whole procedure. The membranes were kept at −80° C. until use. The assay was performed in a 384 well Optiplate (PerkinElmer) in a total volume of 40 ul. Membranes were mixed with SPA beads. Final concentration of membranes 35 ng/μL final and SPA beads was 0.05 mg/well. Test-compounds were dissolved in DMSO and further diluted in assay buffer (50 mM Hepes, pH 7.4, 1 mM CaCl2, 5 mM MgCl2, 0.1% OA and 0.02% Tween20). […] Samples were analyzed on TopCounter™ (Packard). The IC50 was calculated using (one site binding competition analysis) GraphPad Prism5 as a measure of receptor affinity.

Test [2] concerns the target T2, human amylin receptor (amylin 3(a) receptor: human calcitonin receptor + RAMP-3) (Homo sapiens, UniProt O60896+P30988).
T2 construct: expressed in transfected cells
T2 sequence (P30988 25-474): T1 sequence (P30988 25-474)
T2 sequence (O60896 24-148 partner): T1 sequence (O60896 24-148 partner)
Kind of test: Assay (II)a functional assay, human amylin receptor (CRE luciferase, BHK cells). It counts as cell-based.
Method: Assay (II)—Functional Assays
Consequently, transcription is activated by promoters containing multiple copies of the cAMP response element (CRE).
The cell line was further transfected with RAMP-3, using standard methods.
After incubation overnight at 37° C. and 5% CO2, the growth medium was replaced by 50 μl/well assay medium (DMEM (without phenol red), Glutamax™, 10% FBS, and 10 mM Hepes, pH 7.4). Further, 50 μl/well of standard or sample in assay buffer were added. After 3 hours incubation at 37° C. and 5% CO2, the assay medium with standard or sample were removed and replaced by 100 μl/well PBS. Further, 100 μl/well LucLite™ was added. The plates were sealed and incubated at room temperature for 30 minutes. Finally, luminescence was measured on a TopCounter (Packard) in SPC (single photon counting) mode.

[3] abbreviates: Table 7b, human calcitonin receptor binding IC50 divided by human amylin receptor binding IC50.
[4] abbreviates: Table 7c, human calcitonin receptor binding IC50 divided by human amylin receptor binding IC50.
Where [5] appears, read: human binding ratio, included for comparison.
Setting [6] is: Table 6, human functional selectivity (hCTR EC50 / hAmylin-R EC50).
Setting [7] is: Table 6a, human functional selectivity (hCTR EC50 / hAmylin-R EC50), at least 5.
[8] abbreviates: Table 6j, hCTR funct. EC50 / hAmylin-R funct. EC50.
The mark [9] stands for this setting: Table 6k, hCTR funct. EC50 / hAmylin-R funct. EC50.

SMILES strings stand for the structures. Numbered stars: 1 amine (or outer) side, 2 acyl side, 3 side chain; on linkers, the order of the positions; unused ones are H or OH. Bridge positions count the residues as written; N and C are the ends. Side chains are listed from the residue outwards. Peptide text beside a SMILES is read from it. * marks the point of attachment. C20 diacid = O=C(O)CCCCCCCCCCCCCCCCCCC(=O)*; γGlu = O=C(O)[C@H](CCC(=O)[*:2])N[*:1]

With `CC[C@H](C)[C@H](NC(=O)[C@H](C)NC(=O)CNC(=O)[C@H](Cc1ccccc1)NC(=O)[C@H](CC(N)=O)NC(=O)[C@@H]1CCCN1C(=O)[C@H](CO)NC(=O)[C@H](CO)NC(=O)[C@H](Cc1c[nH]cn1)NC(=O)[C@H](CCCNC(=N)N)NC(=O)[C@H](CC(C)C)NC(=O)[C@H](Cc1ccccc1)NC(=O)[C@H](CC(N)=O)NC(=O)[C@H](C)NC(=O)[C@H](CC(C)C)NC(=O)[C@H](CCCNC(=N)N)NC(=O)[C@H](CCC(N)=O)NC(=O)[C@@H](NC(=O)[C@H](C)NC(=O)[C@@H]1CSSC[C@H](NC(=O)[C@@H](N)CCCCNC(=O)COCCOCCNC(=O)CC[C@H](NC(=O)CCCCCCCCCCCCCCCCCCC(=O)O)C(=O)O)C(=O)N[C@@H](CC(N)=O)C(=O)N[C@@H]([C@@H](C)O)C(=O)N[C@@H](C)C(=O)N[C@@H]([C@@H](C)O)C(=O)N1)[C@@H](C)O)C(=O)N1CCC[C@H]1C(=O)N[C@@H](CO)C(=O)N[C@@H](CO)C(=O)N[C@H](C(=O)N[C@@H](CC(N)=O)C(=O)N[C@H](C(=O)NCC(=O)N[C@@H](CO)C(=O)N[C@@H](CCCNC(=N)N)C(=O)N[C@H](C(=O)N[C@@H](Cc1ccc(O)cc1)C(N)=O)[C@@H](C)O)C(C)C)[C@@H](C)O` [Example 38], the IC50 in test [1] (human amylin receptor membranes, SPA, read-out: hAmylin-R bind IC50) was 0.249 nM.

Turning to `CC[C@H](C)[C@H](NC(=O)[C@H](C)NC(=O)CNC(=O)[C@H](Cc1ccccc1)NC(=O)[C@H](CC(N)=O)NC(=O)[C@@H]1CCCN1C(=O)[C@H](CO)NC(=O)[C@H](CO)NC(=O)[C@H](Cc1c[nH]cn1)NC(=O)[C@H](CCCNC(=N)N)NC(=O)[C@H](CC(C)C)NC(=O)[C@H](Cc1ccccc1)NC(=O)[C@H](CC(N)=O)NC(=O)[C@H](C)NC(=O)[C@H](CC(C)C)NC(=O)[C@H](CCCNC(=N)N)NC(=O)[C@H](CCC(N)=O)NC(=O)[C@@H](NC(=O)[C@H](C)NC(=O)[C@@H]1CSSC[C@H](NC(=O)[C@H](CCCCN)NC(=O)CC[C@H](NC(=O)CCCCCCCCCCCCCCCCCCC(=O)O)C(=O)O)C(=O)N[C@@H](CC(N)=O)C(=O)N[C@@H]([C@@H](C)O)C(=O)N[C@@H](C)C(=O)N[C@@H]([C@@H](C)O)C(=O)N1)[C@@H](C)O)C(=O)N1CCC[C@H]1C(=O)N[C@@H](CO)C(=O)N[C@@H](CO)C(=O)N[C@H](C(=O)N[C@@H](CC(N)=O)C(=O)N[C@H](C(=O)NCC(=O)N[C@@H](CCCNC(=N)N)C(=O)N[C@@H](CC(N)=O)C(=O)N[C@H](C(=O)N[C@@H](Cc1ccc(O)cc1)C(N)=O)[C@@H](C)O)C(C)C)[C@@H](C)O` [Example 39] ({C20 diacid-γGlu}-KCNTATCATQRLANFLRHSSPNFGAIPSSTNVGRNTY-NH2; disulfide 2-7), the “Ratio hCT/hAmylin binding” value in test [1] (setting [3]), in test [1] (setting [4]) and in test [1] (setting [5]) was 29.0 throughout.

In the case of `CC[C@H](C)[C@H](NC(=O)[C@H](C)NC(=O)CNC(=O)[C@H](Cc1ccccc1)NC(=O)[C@H](CC(N)=O)NC(=O)[C@@H]1CCCN1C(=O)[C@H](CO)NC(=O)[C@H](CO)NC(=O)[C@H](Cc1c[nH]cn1)NC(=O)[C@H](CCCNC(=N)N)NC(=O)[C@H](CC(C)C)NC(=O)[C@H](Cc1ccccc1)NC(=O)[C@H](Cc1c[nH]cn1)NC(=O)[C@H](C)NC(=O)[C@H](CC(C)C)NC(=O)[C@H](CCCNC(=N)N)NC(=O)[C@H](CCC(N)=O)NC(=O)[C@@H](NC(=O)[C@H](C)NC(=O)[C@@H]1CSSC[C@H](NC(=O)[C@@H](N)CCCCNC(=O)CC[C@H](NC(=O)CCCCCCCCCCCCCCCCCCC(=O)O)C(=O)O)C(=O)N[C@@H](CC(N)=O)C(=O)N[C@@H]([C@@H](C)O)C(=O)N[C@@H](C)C(=O)N[C@@H]([C@@H](C)O)C(=O)N1)[C@@H](C)O)C(=O)N1CCC[C@H]1C(=O)N[C@@H](CO)C(=O)N[C@@H](CO)C(=O)N[C@H](C(=O)N1CCC[C@H]1C(=O)N[C@H](C(=O)NCC(=O)N[C@@H](CO)C(=O)N[C@@H](CC(N)=O)C(=O)N[C@H](C(=O)N[C@@H](Cc1ccc(O)cc1)C(N)=O)[C@@H](C)O)C(C)C)[C@@H](C)O` [Example 62] (H-K([γGlu-C20 diacid])CNTATCATQRLAHFLRHSSPNFGAIPSSTPVGSNTY-NH2; disulfide 2-7; N-terminus assumed), the “Ratio hCT/hAmylin binding” value in test [1] (setting [3]), in test [1] (setting [4]) and in test [1] (setting [5]) was 63.0 each time.

`CC[C@H](C)[C@H](NC(=O)[C@H](C)NC(=O)CNC(=O)[C@H](Cc1ccccc1)NC(=O)[C@H](CC(N)=O)NC(=O)[C@@H]1CCCN1C(=O)[C@H](CO)NC(=O)[C@H](CO)NC(=O)[C@H](Cc1c[nH]cn1)NC(=O)[C@H](CCCNC(=N)N)NC(=O)[C@H](CC(C)C)NC(=O)[C@H](Cc1ccccc1)NC(=O)[C@H](CCC(=O)O)NC(=O)[C@H](C)NC(=O)[C@H](CC(C)C)NC(=O)[C@H](CCCNC(=N)N)NC(=O)[C@H](CCC(N)=O)NC(=O)[C@@H](NC(=O)[C@H](C)NC(=O)[C@@H]1CSSC[C@H](NC(=O)[C@@H](N)CCCCNC(=O)CC[C@H](NC(=O)CCCCCCCCCCCCCCCCCCC(=O)O)C(=O)O)C(=O)N[C@@H](CC(N)=O)C(=O)N[C@@H]([C@@H](C)O)C(=O)N[C@@H](C)C(=O)N[C@@H]([C@@H](C)O)C(=O)N1)[C@@H](C)O)C(=O)N1CCC[C@H]1C(=O)N[C@@H](CO)C(=O)N[C@@H](CO)C(=O)N[C@H](C(=O)N[C@@H](CC(N)=O)C(=O)N[C@H](C(=O)NCC(=O)N[C@@H](CCCNC(=N)N)C(=O)N[C@@H](CCC(=O)O)C(=O)N[C@H](C(=O)N[C@@H](Cc1ccc(O)cc1)C(N)=O)[C@@H](C)O)C(C)C)[C@@H](C)O` [Example 108] (H-K([γGlu-C20 diacid])CNTATCATQRLAEFLRHSSPNFGAIPSSTNVGRETY-NH2; disulfide 2-7 (inferred); N-terminus and C-terminus assumed): the “Ratio hCT/hAmylin funct.” value in test [2] (setting [6]) was determined as 6.5; in test [2] (setting [7]), 6.5; in test [2] (Table 6i, hCTR funct. EC50 / hAmylin-R funct. EC50) it was 6.5; in test [2] (setting [8]), 6.5; in test [2] (setting [9]), 6.5.

As to `CC[C@H](C)[C@H](NC(=O)[C@H](C)NC(=O)CNC(=O)[C@H](Cc1ccccc1)NC(=O)[C@H](CC(N)=O)NC(=O)[C@@H]1CCCN1C(=O)[C@H](CO)NC(=O)[C@H](CO)NC(=O)[C@H](Cc1c[nH]cn1)NC(=O)[C@H](CCCNC(=N)N)NC(=O)[C@H](CC(C)C)NC(=O)[C@H](Cc1ccccc1)NC(=O)[C@H](CO)NC(=O)[C@H](C)NC(=O)[C@H](CC(C)C)NC(=O)[C@H](CCCNC(=N)N)NC(=O)[C@H](CCC(N)=O)NC(=O)[C@@H](NC(=O)[C@H](C)NC(=O)[C@@H]1CSSC[C@H](NC(=O)[C@@H](N)CCCCNC(=O)CC[C@H](NC(=O)CC[C@H](NC(=O)CCCCCCCCCCCCCCCCCCC(=O)O)C(=O)O)C(=O)O)C(=O)N[C@@H](CC(N)=O)C(=O)N[C@@H]([C@@H](C)O)C(=O)N[C@@H](C)C(=O)N[C@@H]([C@@H](C)O)C(=O)N1)[C@@H](C)O)C(=O)N1CCC[C@H]1C(=O)N[C@@H](CO)C(=O)N[C@@H](CO)C(=O)N[C@H](C(=O)N[C@@H](CC(N)=O)C(=O)N[C@H](C(=O)NCC(=O)N1CCC[C@H]1C(=O)N[C@@H](CCC(=O)O)C(=O)N[C@H](C(=O)N[C@@H](Cc1ccc(O)cc1)C(N)=O)[C@@H](C)O)C(C)C)[C@@H](C)O` [Example 120] (H-K([γGlu-γGlu-C20 diacid])CNTATCATQRLASFLRHSSPNFGAIPSSTNVGPETY-NH2; disulfide 2-7 (inferred); N-terminus and C-terminus assumed), the “Ratio hCT/hAmylin funct.” value in test [2] (setting [6]), in test [2] (setting [7]), in test [2] (setting [8]) and in test [2] (setting [9]) was 8.1 throughout.

Usually IC50 stands for the concentration at which inhibition is half-maximal.

The record behind these values is US8575091B1, “Amylin analogues and pharmaceutical compositions thereof” (Novo Nordisk A/S, priority 2012, dated 2013).
